Assay results reported in publication PMC8151276, “An Integrated Approach toward NanoBRET Tracers for Analysis of GPCR Ligand Engagement” (Molecules, 2021).

Experiments:
GALR1 = target: T1, GALR1 (Homo sapiens, UniProt P47211); experiment: NanoBRET screen HiBiT-GALR1 in HEK293; format: binding
T1 construct: purchased Promega (in-house HiBiT-GPCR construct library, NanoBRET)
T1 sequence (P47211 1-349): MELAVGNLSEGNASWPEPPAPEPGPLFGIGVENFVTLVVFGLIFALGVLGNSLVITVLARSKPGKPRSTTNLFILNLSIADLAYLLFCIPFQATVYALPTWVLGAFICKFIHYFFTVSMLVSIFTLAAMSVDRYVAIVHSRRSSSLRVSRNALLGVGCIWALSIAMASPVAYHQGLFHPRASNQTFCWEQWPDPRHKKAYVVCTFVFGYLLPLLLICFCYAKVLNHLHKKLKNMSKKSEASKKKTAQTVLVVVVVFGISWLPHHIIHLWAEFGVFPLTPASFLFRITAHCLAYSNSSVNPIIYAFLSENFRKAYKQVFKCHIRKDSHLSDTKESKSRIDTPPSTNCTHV
Procedure: (§1) Each tracer candidate was screened across the entire library of HiBiT-GPCR constructs using NanoBRET as the detection modality. As depicted in Figure 4A, the specificity of interactions was evaluated through decrease in BRET due to competitive displacement of a bound tracer by excess parental compound. Each tracer was analyzed for binding to each HiBiT-GPCR fusion in the absence and in the presence of competing parental compound. Briefly, HEK293 cells were transfected with HiBiT-GPCR constructs diluted into promoterless DNA to reduce expression and maximize translocation to the cell surface. Each tracer candidate was then screened at concentrations of 1 μM and 0.1 μM across cells expressing these fusions. Cells were treated for 1.5 h with tracer either alone or in the presence of 20 μM competing parental compound (i.e., control). BRET was measured upon addition of purified LgBiT and subsequent complementation with HiBiT genetically fused to a GPCR. The specificity of interactions was assessed through a decrease in BRET signal due to competitive displacement of the bound tracer. To further gauge the robustness of these interactions, the fold response over the control (i.e., BRETtracer/BRETcontrol) was calculated. We chose a 1.5-fold response, which translates to ≥7-fold signal over noise as the minimal threshold required to score an interaction as positive. […]. Below we highlight the screening results obtained for our exemplary fluorescent tracers based on Clozapine, Amitriptyline and AZD1283.
(§2) HiBiT-GPCR DNA constructs were diluted in 10 mM Tris pH 8 to a final concentration of 0.01 μg/μL, arrayed in 96-well plates and stored at −20 °C. For transfection, HEK293 cells were suspended in Opti-MEM (without phenol red) supplemented with 2% fetal bovine serum (Seradigm) and 100 units/mL penicillin–streptomycin (Gibco) at a final concentration of 220,000 cells/mL and dispensed into white 96-well plates at 90 μL/well. Subsequent transfections and screens were carried using an Agilent Bravo Automated Liquid Handling Platform. First, the 96-well HiBiT DNA arrays were diluted 25-fold in Opti-MEM (without serum or phenol red) to a final concentration of 0.0004 μg/μL and 20 μL of the diluted DNAs were transferred into new 96-well plates. Next, promoterless carrier DNA (1 μg/μL) was diluted 25-fold (0.04 μg/μL) and then dispensed into the diluted arrays at 20 μL/well. Following brief mixing, Viafect transfection reagent (Promega) diluted 16-fold into Opti-MEM was dispensed into the plates at 40 μL/well. After mixing by pipetting, plates were incubated for 10 min on the pipetting station deck. The DNA-transfection reagent complexes were then added to plates containing cells. To facilitate the screen, 10 μL of DNA-transfection reagent complexes were added in duplicates to the top 4 and bottom 4 rows, resulting in two identical 48-well arrays per plate. Plates with transfected cells were incubated for 18–20 h at 37 °C/5% CO2. A screen of each tracer across the entire library using two different concentrations requires duplicate plates of transfected cells. Depending on the number of tracers being screened, transfections can be scaled up using the same ratios. The next day, for each tracer, four 20× screening solutions in tracer dilution buffer (Promega) were prepared: two duplicates at final concentration of 20 μM and two duplicates at a final concentration of 2 μM. A competing unmodified compound was added to one of each duplicate at a final concentration of 400 μM. The four resulting solutions were diluted 4-fold in Opti-MEM without serum or phenol red to generate 5× solutions (5 µM and 0.5 µM tracer +/− 100 μM competing compound). To screen the library, a BioTek MultiFlo FX liquid dispenser was used to dispense 22.5 µL of tracer solution to the top 4 rows and 22.5 µL tracer + competing compound solution to the 4 bottom rows. Plates were briefly mixed on an orbital shaker and incubated for 1.5 h at room temperature. […]

GCGR = target: T2, GCGR (Homo sapiens, UniProt P47871); experiment: NanoBRET screen HiBiT-GCGR in HEK293; format: binding
T2 construct: purchased Promega (in-house HiBiT-GPCR construct library, NanoBRET)
Procedure: as §1, §2

T2 sequence (P47871 26-477): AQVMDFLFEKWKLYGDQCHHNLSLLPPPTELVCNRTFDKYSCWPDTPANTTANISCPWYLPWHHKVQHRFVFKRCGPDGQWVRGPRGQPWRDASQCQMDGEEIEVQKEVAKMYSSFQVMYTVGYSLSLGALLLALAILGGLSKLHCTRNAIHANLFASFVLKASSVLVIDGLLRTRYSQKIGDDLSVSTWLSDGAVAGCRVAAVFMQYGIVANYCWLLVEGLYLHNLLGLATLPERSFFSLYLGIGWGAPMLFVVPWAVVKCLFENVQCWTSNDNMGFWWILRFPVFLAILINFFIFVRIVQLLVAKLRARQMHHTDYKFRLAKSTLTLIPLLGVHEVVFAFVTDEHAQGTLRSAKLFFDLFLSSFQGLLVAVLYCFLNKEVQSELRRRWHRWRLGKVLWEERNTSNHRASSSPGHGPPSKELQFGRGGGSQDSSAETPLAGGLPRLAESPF

Structure (SMILES)	NanoBRET Fold Response (GALR1; GALR1, tracer 0.1μM)	NanoBRET Fold Response (GALR1; GALR1, tracer 1μM)	NanoBRET Fold Response (GCGR; GCGR, tracer 0.1μM)	NanoBRET Fold Response (GCGR; GCGR, tracer 1μM)	further results
O=C(CCc1ccc2n1[B-](F)(F)[N+]1=C(c3ccc[nH]3)C=CC1=C2)NCc1ccc(C(=O)NCCOCCC(=O)N[C@@H]2CC[C@@]3(O)[C@H]4Cc5ccc(O)c6c5[C@@]3(CCN4CC3CC3)[C@H]2O6)cc1 [Naltrexone-3-NB590]	0.99	0.89	1.06	0.92	–
CCCn1c(=O)c2[nH]c(-c3ccc(OCC(=O)NCCNC(=O)CCOCCNC(=O)c4ccc(CNC(=O)CCc5ccc6n5[B-](F)(F)[N+]5=C(c7ccc[nH]7)C=CC5=C6)cc4)cc3)nc2n(CCC)c1=O [XAC-3-NB590]	1.02	1.04	1.03	0.96	–
CC(C)N(CC[C@H](c1ccccc1)c1cc(CCNC(=O)c2ccc(CNC(=O)CCc3ccc4n3[B-](F)(F)[N+]3=C(c5ccc[nH]5)C=CC3=C4)cc2)ccc1O)C(C)C [Tolterodine-BZ-NB590]	0.95	1.07	0.82	1.00	–
COc1ccc2[nH]c(-c3ccc(CNC(=O)CCOCCOCCOCCOCCNC(=O)CCc4ccc5n4[B-](F)(F)[N+]4=C(c6ccc[nH]6)C=CC4=C5)cc3)c(CCNC(C)=O)c2n1 [AzomelatoninICO9-2-NB590]	–	–	–	–	NanoBRET Fold Response (GALR1; 0.1μM tracer): 0.87; NanoBRET Fold Response (GALR1; 1μM tracer): 1.05; NanoBRET Fold Response (GCGR; 0.1μM tracer): 0.90; NanoBRET Fold Response (GCGR; 1μM tracer): 1.05
CN1CCN(C2=Nc3cc(Cl)ccc3N(CC(=O)NCCOCCOCCOCCOCCNC(=O)CCc3ccc4n3[B-](F)(F)[N+]3=C(c5ccc[nH]5)C=CC3=C4)c3ccccc32)CC1 [Clozapine-c-2-NB590]	–	–	–	–	NanoBRET Fold Response (GALR1; GALR1, 0.1μM tracer): 1.02; NanoBRET Fold Response (GALR1; GALR1, 1μM tracer): 1.03; NanoBRET Fold Response (GCGR; GCGR, 0.1μM tracer): 0.99; NanoBRET Fold Response (GCGR; GCGR, 1μM tracer): 1.02
COc1ccccc1N1CCN(CCCCN2C(=O)c3ccc(CNC(=O)CCOCCNC(=O)c4ccc(CNC(=O)CCc5ccc6n5[B-](F)(F)[N+]5=C(c7ccc[nH]7)C=CC5=C6)cc4)cc3C2=O)CC1 [NAN-190-3-NB590]	1.09	0.99	0.84	0.76	–
Cc1nc2n(c(=O)c1CCN1CCC(c3noc4cc(F)ccc34)CC1)CCCC2OC(=O)NCCOCCOCCOCCOCCNC(=O)CCc1ccc2n1[B-](F)(F)[N+]1=C(c3ccc[nH]3)C=CC1=C2 (stereo not shown) [Risperidone-2-NB590]	1.00	0.99	0.97	0.93	–
O=C(CCOCCOCCOCCOCCNC(=O)CCc1ccc2n1[B-](F)(F)[N+]1=C(c3ccc[nH]3)C=CC1=C2)NCCCN1CCN(C2=Nc3ccccc3Oc3ccc(Cl)cc32)CC1 [Loxapine-a-2-NB590]	1.03	1.21	1.05	1.24	–
COc1ccccc1N1CCN(CCCCN2C(=O)c3ccc(CNC(=O)CCOCCOCCOCCOCCNC(=O)CCc4ccc5n4[B-](F)(F)[N+]4=C(c6ccc[nH]6)C=CC4=C5)cc3C2=O)CC1 [NAN-190-2-NB590]	1.02	–	1.06	1.06	–
CC(C)N(CC[C@H](c1ccccc1)c1cc(CCNC(=O)CCOCCOCCOCCOCCNC(=O)CCc2ccc3n2[B-](F)(F)[N+]2=C(c4ccc[nH]4)C=CC2=C3)ccc1O)C(C)C [Tolterodine-2-NB590]	1.04	0.99	1.32	1.04	–
N#CN=C(NCCCOc1cccc(CN2CCCCC2)c1)NCCNC(=O)CCOCCOCCOCCOCCNC(=O)CCc1ccc2n1[B-](F)(F)[N+]1=C(c3ccc[nH]3)C=CC1=C2 [Aminopotentidine-2-NB590]	1.02	0.99	0.95	1.04	–
CCOC(=O)c1cc(C#N)c(N2CCC(C(=O)NS(=O)(=O)Cc3ccccc3/C=C/C(=O)NCCNC(=O)CCc3ccc4n3[B-](F)(F)[N+]3=C(c5ccc[nH]5)C=CC3=C4)CC2)nc1C [AZD1283-1-NB590]	–	–	–	–	NanoBRET Fold Response (GALR1; GALR1, 0.1μM): 1.03; NanoBRET Fold Response (GALR1; GALR1, 1μM): 1.09; NanoBRET Fold Response (GCGR; GCGR, 0.1μM): 1.05; NanoBRET Fold Response (GCGR; GCGR, 1μM): 1.12
CN(C)CCC=C1c2ccccc2CCc2ccc(C(=O)NCCNC(=O)CCOCCOCCOCCOCCNC(=O)CCc3ccc4n3[B-](F)(F)[N+]3=C(c5ccc[nH]5)C=CC3=C4)cc21 [Amitriptyline-b-2-NB590]	–	–	0.91	1.03	NanoBRET Fold Response (GALR1; tracer at 0.1μM, listed as amitriptyline-b-2-NB590): 0.98; NanoBRET Fold Response (GALR1; tracer at 1μM, listed as amitriptyline-b-2-NB590): 1.03
CN(C)CCC=C1c2ccccc2CCc2ccc(C(=O)NCCNC(=O)CCOCCOCCOCCOCCNC(=O)CCc3ccc4n3[B-](F)(F)[N+]3=C(c5ccc[nH]5)C=CC3=C4)cc21 [Amitriptyline-a-2-NB590]	–	–	–	–	NanoBRET Fold Response (GALR1; tracer at 0.1μM): 1.05; NanoBRET Fold Response (GALR1; tracer at 1μM): 0.97
O=C(CCc1ccc2n1[B-](F)(F)[N+]1=C(c3ccc[nH]3)C=CC1=C2)NCCOCCOCCNC(=O)OCCOCCN1CCN(C2=Nc3ccccc3Sc3ccccc32)CC1 [Quetiapine-a-2-NB590]	1.02	0.76	0.94	0.73	–
Cc1cc2c(s1)Nc1ccccc1N=C2N1CCN(CCCNC(=O)CCOCCOCCOCCOCCNC(=O)CCc2ccc3n2[B-](F)(F)[N+]2=C(c4ccc[nH]4)C=CC2=C3)CC1 [Olanzapine-a-2-NB590]	1.03	1.09	0.97	0.95	–
CN1CCN(C2=Nc3cc(Cl)ccc3Nc3ccc(CNC(=O)CCOCCOCCOCCOCCNC(=O)CCc4ccc5n4[B-](F)(F)[N+]4=C(c6ccc[nH]6)C=CC4=C5)cc32)CC1 [Clozapine-b-2-NB590]	–	–	–	–	NanoBRET Fold Response (GALR1; GALR1, 0.1μM tracer): 0.99; NanoBRET Fold Response (GALR1; GALR1, 1μM tracer): 0.99; NanoBRET Fold Response (GCGR; GCGR, 0.1μM tracer): 1.02; NanoBRET Fold Response (GCGR; GCGR, 1μM tracer): 1.04
COc1ccc2c(n1)c(CCNC(C)=O)cn2CCNC(=O)CCc1ccc2n1[B-](F)(F)[N+]1=C(c3ccc[nH]3)C=CC1=C2 [Azamelatonin-1-NB590]	–	–	–	–	NanoBRET Fold Response (GALR1; 0.1μM tracer): 1.06; NanoBRET Fold Response (GALR1; 1μM tracer): 1.00; NanoBRET Fold Response (GCGR; 0.1μM tracer): 1.01; NanoBRET Fold Response (GCGR; 1μM tracer): 1.10
O=C(CCc1ccc2n1[B-](F)(F)[N+]1=C(c3ccc[nH]3)C=CC1=C2)NCc1ccc(C(=O)NCCOCCOCCNCC(O)COc2cccc3ccccc23)cc1 (stereo not shown) [Propranolol-3-NB590]	–	–	–	–	NanoBRET Fold Response (GALR1; GALR1, 0.1μM): 1.02; NanoBRET Fold Response (GALR1; GALR1, 1μM): 0.96; NanoBRET Fold Response (GCGR; GCGR, 0.1μM): 1.03; NanoBRET Fold Response (GCGR; GCGR, 1μM): 0.96
